How the values were obtained:
Assay in all cases: KINOMEscan competition binding
Conditions in all cases: compound 10.0 µM
ADCK3 (human) = ADCK3 (human) (UniProt Q8NI60)
AKT2 (human) = AKT2 (human) (UniProt P31751)
AURKB (human) = AURKB (human) (UniProt Q96GD4)
CAMK2B (human) = CAMK2B (human) (UniProt Q13554)
CDC42BPB (human) = CDC42BPB (human) (UniProt Q9Y5S2)
CDK3 (human) = CDK3 (human) (UniProt Q00526)
CLK2 (human) = CLK2 (human) (UniProt P49760)
DAPK2 (human) = DAPK2 (human) (UniProt Q9UIK4)
DAPK2 (human), sequence (Q9UIK4 whole entry, looked up): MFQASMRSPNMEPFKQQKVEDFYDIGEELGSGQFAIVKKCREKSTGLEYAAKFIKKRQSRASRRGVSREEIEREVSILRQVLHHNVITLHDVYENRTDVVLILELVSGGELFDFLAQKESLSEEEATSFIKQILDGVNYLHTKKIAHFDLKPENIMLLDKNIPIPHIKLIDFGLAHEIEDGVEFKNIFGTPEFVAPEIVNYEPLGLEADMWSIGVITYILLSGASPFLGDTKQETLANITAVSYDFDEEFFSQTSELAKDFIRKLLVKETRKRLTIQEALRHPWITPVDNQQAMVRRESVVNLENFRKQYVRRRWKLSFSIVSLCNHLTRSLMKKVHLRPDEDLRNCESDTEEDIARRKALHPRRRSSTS

DDR2 (human) = DDR2 (human) (UniProt Q16832)
DDR2 (human), sequence (Q16832 whole entry, looked up): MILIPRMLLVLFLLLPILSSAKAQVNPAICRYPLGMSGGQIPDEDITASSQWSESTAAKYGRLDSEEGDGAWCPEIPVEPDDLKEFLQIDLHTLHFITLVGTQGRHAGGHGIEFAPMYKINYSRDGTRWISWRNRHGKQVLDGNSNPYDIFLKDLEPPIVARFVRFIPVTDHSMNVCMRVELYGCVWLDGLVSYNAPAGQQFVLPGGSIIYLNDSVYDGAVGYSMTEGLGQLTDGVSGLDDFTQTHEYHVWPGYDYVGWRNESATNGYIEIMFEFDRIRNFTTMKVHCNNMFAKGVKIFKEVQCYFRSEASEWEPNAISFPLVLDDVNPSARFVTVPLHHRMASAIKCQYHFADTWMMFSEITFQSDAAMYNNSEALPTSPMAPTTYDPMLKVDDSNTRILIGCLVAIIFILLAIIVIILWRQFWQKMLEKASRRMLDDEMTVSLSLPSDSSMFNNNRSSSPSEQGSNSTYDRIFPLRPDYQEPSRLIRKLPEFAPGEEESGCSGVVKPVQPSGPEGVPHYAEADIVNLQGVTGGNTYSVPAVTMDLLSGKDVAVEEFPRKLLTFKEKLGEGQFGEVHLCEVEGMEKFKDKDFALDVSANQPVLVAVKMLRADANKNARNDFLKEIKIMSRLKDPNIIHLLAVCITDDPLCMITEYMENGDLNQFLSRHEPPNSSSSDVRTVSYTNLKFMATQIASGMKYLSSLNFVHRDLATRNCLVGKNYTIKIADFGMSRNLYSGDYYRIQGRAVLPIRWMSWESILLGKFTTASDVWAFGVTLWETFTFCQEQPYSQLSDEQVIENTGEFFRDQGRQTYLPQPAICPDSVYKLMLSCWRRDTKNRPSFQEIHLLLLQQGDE

DYRK1B (human) = DYRK1B (human) (UniProt Q9Y463)
ERBB2 (human) = ERBB2 (human) (UniProt P04626)
ERBB4 (human) = ERBB4 (human) (UniProt Q15303)
FGFR3 (human) = FGFR3 (human) (UniProt P22607)
FGFR3 (human), sequence (P22607 whole entry, looked up): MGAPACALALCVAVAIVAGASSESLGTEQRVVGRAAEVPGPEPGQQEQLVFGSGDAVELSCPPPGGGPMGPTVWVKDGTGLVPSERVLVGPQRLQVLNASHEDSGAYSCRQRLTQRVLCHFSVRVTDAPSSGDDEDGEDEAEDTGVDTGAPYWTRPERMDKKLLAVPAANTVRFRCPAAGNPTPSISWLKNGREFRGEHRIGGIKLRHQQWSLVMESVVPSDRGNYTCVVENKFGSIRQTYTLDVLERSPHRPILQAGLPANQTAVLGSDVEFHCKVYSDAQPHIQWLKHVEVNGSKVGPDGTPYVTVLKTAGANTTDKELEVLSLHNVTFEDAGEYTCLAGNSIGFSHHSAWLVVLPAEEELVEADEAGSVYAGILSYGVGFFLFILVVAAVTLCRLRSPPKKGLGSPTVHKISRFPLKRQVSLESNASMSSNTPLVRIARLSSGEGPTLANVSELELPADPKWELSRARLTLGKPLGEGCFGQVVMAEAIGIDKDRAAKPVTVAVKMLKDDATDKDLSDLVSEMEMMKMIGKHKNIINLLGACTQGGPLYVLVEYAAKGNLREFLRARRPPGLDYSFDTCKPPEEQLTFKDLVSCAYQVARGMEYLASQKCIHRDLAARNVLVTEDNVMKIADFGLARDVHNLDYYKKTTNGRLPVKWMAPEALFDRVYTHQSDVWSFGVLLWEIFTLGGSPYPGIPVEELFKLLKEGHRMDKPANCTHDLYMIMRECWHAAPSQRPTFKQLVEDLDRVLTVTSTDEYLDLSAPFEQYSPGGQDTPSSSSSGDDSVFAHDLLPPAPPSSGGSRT

FGR (human) = FGR (human) (UniProt P09769)
FRK (human) = FRK (human) (UniProt P42685)
HIPK1 (human) = HIPK1 (human) (UniProt Q86Z02)
LATS1 (human) = LATS1 (human) (UniProt O95835)
LIMK2 (human) = LIMK2 (human) (UniProt P53671)
MAP3K5 (human) = MAP3K5 (human) (UniProt Q99683)
MAPK1 (human) = MAPK1 (human) (UniProt P28482)
MAPK14 (human) = MAPK14 (human) (UniProt Q16539)
MAPK15 (human) = MAPK15 (human) (UniProt Q8TD08)
MAPK15 (human), sequence (Q8TD08 whole entry, looked up): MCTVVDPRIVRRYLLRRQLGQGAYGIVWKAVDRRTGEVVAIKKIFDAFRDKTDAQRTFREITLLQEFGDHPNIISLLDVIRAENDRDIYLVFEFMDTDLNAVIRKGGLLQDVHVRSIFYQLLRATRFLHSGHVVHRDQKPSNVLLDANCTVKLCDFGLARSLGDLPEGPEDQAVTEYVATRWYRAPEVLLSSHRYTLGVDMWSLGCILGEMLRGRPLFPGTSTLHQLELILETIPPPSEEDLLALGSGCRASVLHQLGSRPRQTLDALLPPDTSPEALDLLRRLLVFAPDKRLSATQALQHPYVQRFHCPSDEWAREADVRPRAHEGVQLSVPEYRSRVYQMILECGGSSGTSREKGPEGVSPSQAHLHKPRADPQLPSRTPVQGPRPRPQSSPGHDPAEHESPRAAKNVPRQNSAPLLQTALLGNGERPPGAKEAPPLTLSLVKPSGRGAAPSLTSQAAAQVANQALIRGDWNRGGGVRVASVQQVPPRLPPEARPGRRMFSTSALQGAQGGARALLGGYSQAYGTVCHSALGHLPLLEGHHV

MAPKAPK5 (human) = MAPKAPK5 (human) (UniProt Q8IW41)
MST4 (human) = MST4 (human) (UniProt Q9P289)
PHKG1 (human) = PHKG1 (human) (UniProt Q16816)
PIK3CD (human) = PIK3CD (human) (UniProt O00329)
PKN2 (human) = PKN2 (human) (UniProt Q16513)
PRKD1 (human) = PRKD1 (human) (UniProt Q15139)
PRKG1 (human) = PRKG1 (human) (UniProt Q13976)
RET (human) = RET (human) (UniProt P07949)
RPS6KA6 KD1 (human) = RPS6KA6 KD1 (human) (UniProt Q9UK32)
RPS6KA6 KD2 (human) = RPS6KA6 KD2 (human) (UniProt Q9UK32)
SRMS (human) = SRMS (human) (UniProt Q9H3Y6)
SRPK3 (human) = SRPK3 (human) (UniProt Q9UPE1)
TGFBR1 (human) = TGFBR1 (human) (UniProt P36897)
TLK2 (human) = TLK2 (human) (UniProt Q86UE8)
ULK2 (human) = ULK2 (human) (UniProt Q8IYT8)
ULK3 (human) = ULK3 (human) (UniProt Q6PHR2)
ULK3 (human), sequence (Q6PHR2 whole entry, looked up): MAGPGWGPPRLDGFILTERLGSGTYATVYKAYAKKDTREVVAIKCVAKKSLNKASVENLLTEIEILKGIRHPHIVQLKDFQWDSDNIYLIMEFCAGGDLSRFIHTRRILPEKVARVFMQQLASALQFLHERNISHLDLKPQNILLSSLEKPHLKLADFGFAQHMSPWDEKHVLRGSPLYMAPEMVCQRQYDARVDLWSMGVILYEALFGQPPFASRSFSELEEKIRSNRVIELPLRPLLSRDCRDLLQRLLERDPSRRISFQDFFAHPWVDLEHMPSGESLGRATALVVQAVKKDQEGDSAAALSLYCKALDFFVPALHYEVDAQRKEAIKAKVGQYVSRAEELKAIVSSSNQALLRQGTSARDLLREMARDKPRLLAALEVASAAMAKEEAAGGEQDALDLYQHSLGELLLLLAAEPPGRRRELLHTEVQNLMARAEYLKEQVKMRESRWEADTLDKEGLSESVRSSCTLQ

ACVR2A (human) = ACVR2A (human) (UniProt P27037)
CDC2L2 (human) = CDC2L2 (human) (UniProt Q9UQ88)

ADCK3 (human), sequence (Q8NI60 whole entry, looked up): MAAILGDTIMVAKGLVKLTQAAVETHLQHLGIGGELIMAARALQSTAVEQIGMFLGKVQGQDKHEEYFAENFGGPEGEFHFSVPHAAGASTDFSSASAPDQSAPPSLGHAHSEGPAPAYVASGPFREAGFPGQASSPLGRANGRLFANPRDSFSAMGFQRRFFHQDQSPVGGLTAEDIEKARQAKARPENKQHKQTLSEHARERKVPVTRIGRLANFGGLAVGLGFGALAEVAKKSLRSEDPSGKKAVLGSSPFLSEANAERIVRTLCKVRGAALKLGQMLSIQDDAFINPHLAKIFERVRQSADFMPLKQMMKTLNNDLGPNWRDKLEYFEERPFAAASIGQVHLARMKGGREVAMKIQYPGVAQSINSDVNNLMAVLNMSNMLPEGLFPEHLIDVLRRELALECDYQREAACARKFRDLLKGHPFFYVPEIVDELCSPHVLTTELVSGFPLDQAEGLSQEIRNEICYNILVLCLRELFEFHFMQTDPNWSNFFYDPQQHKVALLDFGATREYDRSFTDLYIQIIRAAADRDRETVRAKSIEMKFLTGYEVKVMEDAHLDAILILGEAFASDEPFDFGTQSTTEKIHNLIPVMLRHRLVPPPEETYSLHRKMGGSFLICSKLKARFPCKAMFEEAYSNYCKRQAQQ
AURKB (human), sequence (Q96GD4 whole entry, looked up): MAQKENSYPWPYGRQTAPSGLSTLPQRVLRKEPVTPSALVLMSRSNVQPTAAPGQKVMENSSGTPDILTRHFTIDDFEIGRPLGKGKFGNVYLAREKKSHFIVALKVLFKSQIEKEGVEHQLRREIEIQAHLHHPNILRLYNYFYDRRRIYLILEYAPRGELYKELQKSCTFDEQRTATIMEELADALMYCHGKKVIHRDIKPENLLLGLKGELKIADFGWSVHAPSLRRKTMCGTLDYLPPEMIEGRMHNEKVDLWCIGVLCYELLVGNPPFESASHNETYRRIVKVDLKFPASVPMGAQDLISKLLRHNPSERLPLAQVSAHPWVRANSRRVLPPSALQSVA
CDK3 (human), sequence (Q00526 whole entry, looked up): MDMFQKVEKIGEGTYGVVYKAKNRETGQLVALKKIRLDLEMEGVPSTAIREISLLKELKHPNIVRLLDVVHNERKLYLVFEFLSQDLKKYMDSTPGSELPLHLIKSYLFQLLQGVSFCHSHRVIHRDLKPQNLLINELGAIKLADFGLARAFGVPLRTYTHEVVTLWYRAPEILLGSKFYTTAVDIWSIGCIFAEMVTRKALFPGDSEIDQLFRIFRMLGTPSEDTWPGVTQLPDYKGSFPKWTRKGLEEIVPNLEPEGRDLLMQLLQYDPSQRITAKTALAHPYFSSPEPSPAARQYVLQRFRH
CLK2 (human), sequence (P49760 whole entry, looked up): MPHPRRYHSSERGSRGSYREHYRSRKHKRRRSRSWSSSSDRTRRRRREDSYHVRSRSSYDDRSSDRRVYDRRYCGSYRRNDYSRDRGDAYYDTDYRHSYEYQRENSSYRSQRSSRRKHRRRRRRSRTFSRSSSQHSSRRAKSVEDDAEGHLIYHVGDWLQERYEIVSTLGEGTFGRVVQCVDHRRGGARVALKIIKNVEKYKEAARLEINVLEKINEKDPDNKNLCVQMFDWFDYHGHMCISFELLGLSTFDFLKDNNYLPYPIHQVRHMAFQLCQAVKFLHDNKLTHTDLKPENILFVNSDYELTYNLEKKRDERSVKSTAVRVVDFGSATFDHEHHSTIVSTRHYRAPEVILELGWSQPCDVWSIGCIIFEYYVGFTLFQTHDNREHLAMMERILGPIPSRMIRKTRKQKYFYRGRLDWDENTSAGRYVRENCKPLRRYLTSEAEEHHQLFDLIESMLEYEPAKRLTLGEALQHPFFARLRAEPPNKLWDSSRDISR

Row | Compound | kinase still bound, per cent of control (ADCK3 (human)) [%] | kinase still bound, per cent of control (AKT2 (human)) [%] | kinase still bound, per cent of control (AURKB (human)) [%] | kinase still bound, per cent of control (CAMK2B (human)) [%] | kinase still bound, per cent of control (CDC42BPB (human)) [%] | kinase still bound, per cent of control (CDK3 (human)) [%] | kinase still bound, per cent of control (CLK2 (human)) [%] | kinase still bound, per cent of control (DAPK2 (human)) [%] | kinase still bound, per cent of control (DDR2 (human)) [%] | kinase still bound, per cent of control (DYRK1B (human)) [%] | kinase still bound, per cent of control (ERBB4 (human)) [%] | kinase still bound, per cent of control (FGFR3 (human)) [%] | kinase still bound, per cent of control (FGR (human)) [%] | kinase still bound, per cent of control (FRK (human)) [%] | kinase still bound, per cent of control (HIPK1 (human)) [%] | kinase still bound, per cent of control (LATS1 (human)) [%] | kinase still bound, per cent of control (LIMK2 (human)) [%] | kinase still bound, per cent of control (MAP3K5 (human)) [%] | kinase still bound, per cent of control (MAPK1 (human)) [%] | kinase still bound, per cent of control (MAPK14 (human)) [%] | also measured
1 | COc1cc(N2CCN(C)CC2)ccc1Nc1nc(N)c(C(=O)c2c(Cl)cccc2Cl)s1 | 93 | 100 | 93 | 20 | 100 | 97 | 13 | 86 | 100 | 42 | 100 | 99 | 93 | 43 | 69 | 100 | 94 | 100 | 100 | 94 | kinase still bound, per cent of control (ERBB2 (human)): 100%; kinase still bound, per cent of control (MAPK15 (human)): 84%; kinase still bound, per cent of control (MAPKAPK5 (human)): 100%; kinase still bound, per cent of control (MST4 (human)): 100%; kinase still bound, per cent of control (PHKG1 (human)): 82%; kinase still bound, per cent of control (PIK3CD (human)): 98%; kinase still bound, per cent of control (PKN2 (human)): 98%; kinase still bound, per cent of control (PRKD1 (human)): 44%; kinase still bound, per cent of control (PRKG1 (human)): 100%; kinase still bound, per cent of control (RET (human)): 97%; kinase still bound, per cent of control (RPS6KA6 KD1 (human)): 79%; kinase still bound, per cent of control (RPS6KA6 KD2 (human)): 28%; kinase still bound, per cent of control (SRMS (human)): 71%; kinase still bound, per cent of control (SRPK3 (human)): 77%; kinase still bound, per cent of control (TGFBR1 (human)): 100%; kinase still bound, per cent of control (TLK2 (human)): 93%; kinase still bound, per cent of control (ULK2 (human)): 72%; kinase still bound, per cent of control (ULK3 (human)): 100%
2 | O=C1Nc2ccc(I)cc2/C1=C/c1cc(Br)c(O)c(Br)c1 | 100 | 90 | 9.4 | 17 | 100 | 90 | 15 | 1.9 | 73 | 41 | 50 | 84 | 86 | 45 | 11 | 44 | 77 | 100 | 87 | 36 | kinase still bound, per cent of control (ACVR2A (human)): 100%; kinase still bound, per cent of control (CDC2L2 (human)): 73%; kinase still bound, per cent of control (ERBB2 (human)): 94%; kinase still bound, per cent of control (MAPK15 (human)): 61%; kinase still bound, per cent of control (MAPKAPK5 (human)): 100%; kinase still bound, per cent of control (MST4 (human)): 100%; kinase still bound, per cent of control (PHKG1 (human)): 85%; kinase still bound, per cent of control (PIK3CD (human)): 81%; kinase still bound, per cent of control (PKN2 (human)): 99%; kinase still bound, per cent of control (PRKD1 (human)): 100%; kinase still bound, per cent of control (PRKG1 (human)): 100%; kinase still bound, per cent of control (RET (human)): 100%; kinase still bound, per cent of control (RPS6KA6 KD1 (human)): 51%; kinase still bound, per cent of control (RPS6KA6 KD2 (human)): 1.7%; kinase still bound, per cent of control (SRMS (human)): 65%; kinase still bound, per cent of control (SRPK3 (human)): 7.8%; kinase still bound, per cent of control (TGFBR1 (human)): 10%; kinase still bound, per cent of control (TLK2 (human)): 83%; kinase still bound, per cent of control (ULK2 (human)): 90%; kinase still bound, per cent of control (ULK3 (human)): 12%
3 | O=C(O)c1ccc(Nc2ncc3c(n2)-c2ccc(Cl)cc2C(c2c(F)cccc2F)=NC3)cc1 | 88 | 100 | 0.3 | 71 | 69 | 100 | 7.4 | 41 | 3.6 | 91 | 52 | 9 | 7.6 | 73 | 14 | 98 | 94 | 100 | 100 | 93 | kinase still bound, per cent of control (ACVR2A (human)): 95%; kinase still bound, per cent of control (CDC2L2 (human)): 100%; kinase still bound, per cent of control (MAPK15 (human)): 90%; kinase still bound, per cent of control (MAPKAPK5 (human)): 100%; kinase still bound, per cent of control (MST4 (human)): 100%; kinase still bound, per cent of control (PHKG1 (human)): 100%; kinase still bound, per cent of control (PIK3CD (human)): 88%; kinase still bound, per cent of control (PKN2 (human)): 79%; kinase still bound, per cent of control (PRKD1 (human)): 92%; kinase still bound, per cent of control (PRKG1 (human)): 100%; kinase still bound, per cent of control (RET (human)): 59%; kinase still bound, per cent of control (RPS6KA6 KD1 (human)): 36%; kinase still bound, per cent of control (RPS6KA6 KD2 (human)): 58%; kinase still bound, per cent of control (SRMS (human)): 54%; kinase still bound, per cent of control (SRPK3 (human)): 100%; kinase still bound, per cent of control (TGFBR1 (human)): 98%; kinase still bound, per cent of control (TLK2 (human)): 83%; kinase still bound, per cent of control (ULK2 (human)): 100%; kinase still bound, per cent of control (ULK3 (human)): 57%

Source: the kinase profiling compilation of Christmann-Franck et al. (2016)
